Laboratory results: patent US5118599A, “Yellow couplers for photographic elements and processes” (Eastman Kodak Company, priority 1991, dated 1992)

How the values were obtained:
[1] = Photographic single layer element: Dmax, Dmin, gamma and λmax after color development
Method: Single layer photographic elements were prepared by coating a cellulose acetate-butyrate film support with a photosensitive layer containing a silver bromide emulsion at 70.2 and 140.4 mg/ft^2 for 2 and 4 equivalent couplers, respectively, gelatin at 350 mg/ft^2 and an image coupler (0.20 mmol/ft^2) dispersed in half its weight of dibutyl phthalate. The photosensitive layer was overcoated with a layer containing gelatin at 250 mg/ft^2 and bis vinylsulfonyl methyl ether hardener at 2.0 weight percent based on total gel.
Samples of each element were exposed imagewise through a stepped density test object and processed at 100° F. employing the following color developing solution, then stopped with a low pH bath, bleached, fixed, washed and dried to produce stepped colored images.
Color Developer Solution (2')
4-Amino-3-methyl-N-ethyl 3.55 g
Water to make 1 liter, pH 10.0
Densitometry in the appropriate color maximum density (Dmin and Dmax) and gamma defined as the maximum slope between any two adjacent density points.

pKa Measurements = type: physicochemical; conditions: Table 1
Excerpt: The structural preference of the coupler for the axial conformation has important implications for […]. Due largely to the ability of the carbonyl oxygen to enolize and form H-bonds with the oxygen atoms of the dioxane ring, the pKa of the coupler is generally 1-2 units lower than pivaloyl acetanilide-based couplers. A lower pKa value means that the coupler ionizes more readily at pH 10, and results in higher coupling activity with oxidized color developer, as shown in Table 1.

[2] = Table 4, color developer pH 10.0

Row | Structure (SMILES) | λmax [1, 2] [nm] | pKa (pKa Measurements) | λmax ([1]; Table 3, D99, pH 10.0, KS-2)
1 | CCOC1C(=O)N(C(C(=O)Nc2cc(NC(=O)CCCOc3ccc(C(C)(C)CC)cc3C(C)(C)CC)ccc2OC)C(=O)C2(C)COC(C)(C)OC2)C(=O)N1Cc1ccccc1 [Coupler D-8] | 445 |  | 
2 | CCCCCCCCCCCCCCCCS(=O)(=O)Nc1ccc(Cl)c(NC(=O)CC(=O)C(C)(C)C)c1 [P-V, reference compound] | 449 |  | 449
3 | CCCCCCCCCCCCCCCCS(=O)(=O)Nc1ccc(Cl)c(NC(=O)CC(=O)C2(C)COCOC2)c1 [Coupler D-4] | 454 | 8.42 | 454
4 | CCC(C)(C)c1ccc(OCCCC(=O)Nc2ccc(Cl)c(NC(=O)C(Oc3ccc(S(=O)(=O)c4ccc(OCc5ccccc5)cc4)cc3)C(=O)C3(C)COCOC3)c2)c(C(C)(C)CC)c1 [Coupler D-11] |  | 7.24 | 
5 | CCC(C)(C)c1ccc(OCCCC(=O)Nc2cccc(NC(=O)C(Oc3ccc(S(=O)(=O)c4ccc(O)cc4)cc3)C(=O)C3(C)COCOC3)c2)c(C(C)(C)CC)c1 [Coupler D-12] | 454 |  | 
6 | CCC(C)(C)c1ccc(OCCCC(=O)Nc2ccc(Cl)c(NC(=O)C(Oc3ccc(S(=O)(=O)c4ccc(OCc5ccccc5)cc4)cc3)C(=O)C(C)(C)C)c2)c(C(C)(C)CC)c1 (stereo not drawn) [P-III, reference compound] | 450 | 8.76 | 
7 | CCC(C)(C)c1ccc(OCCCC(=O)Nc2ccc(OC)c(NC(=O)C(Oc3ccc(S(=O)(=O)c4ccc(O)cc4)cc3)C(=O)C3(C)COC(C)(C)OC3)c2)c(C(C)(C)CC)c1 [Coupler D-7] | 445 |  | 
8 | CCCCCCCCCCCCCCCCS(=O)(=O)Nc1ccc(Cl)c(NC(=O)C(Oc2ccc(S(=O)(=O)c3ccc(OCc4ccccc4)cc3)cc2)C(=O)C(C)(C)C)c1 (stereo not drawn) [P-I, reference compound] | 452 |  | 
9 | CCCCCCCCCCCCCCCCS(=O)(=O)Nc1ccc(OC)c(NC(=O)CC(=O)C2(C)COC(C)(C)OC2)c1 [Coupler D-2] |  |  | 446
10 | CCC(C)(C)c1ccc(OCCCC(=O)Nc2ccc(OC)c(NC(=O)C(Oc3ccc(S(=O)(=O)c4ccc(O)cc4)cc3)C(=O)C3(C)COCOC3)c2)c(C(C)(C)CC)c1 [Coupler D-14] | 448 |  | 

More lines, now with the values ahead:

Row | λmax [1, 2] [nm] | pKa (pKa Measurements) | λmax ([1]; Table 3, D99, pH 10.0, KS-2) | Structure (SMILES)
11 | 453 | 7.55 |  | CCC(C)(C)c1ccc(OCCCC(=O)Nc2ccc(Cl)c(NC(=O)C(Oc3ccc(S(=O)(=O)c4ccc(O)cc4)cc3)C(=O)C3(C)COCOC3)c2)c(C(C)(C)CC)c1 [Coupler D-10]
12 |  | 8.51 |  | CCC(C)(C)c1ccc(OCCCC(=O)Nc2ccc(Cl)c(NC(=O)CC(=O)C3(C)COC(C)(C)OC3)c2)c(C(C)(C)CC)c1 [Coupler D-0]
13 | 446 |  |  | CCC(C)(C)c1ccc(OCCCC(=O)Nc2ccc(OC)c(NC(=O)CC(=O)C3(C)COCOC3)c2)c(C(C)(C)CC)c1 [Coupler D-3]
14 | 447 | 10.01 | 447 | CCC(C)(C)c1ccc(OCCCC(=O)Nc2ccc(Cl)c(NC(=O)CC(=O)C(C)(C)C)c2)c(C(C)(C)CC)c1 [P-VI, reference compound]
15 | 452 |  |  | CCC(C)(C)c1ccc(OCCCC(=O)Nc2ccc(C)c(NC(=O)C(Oc3ccc(S(=O)(=O)c4ccc(O)cc4)cc3)C(=O)C3(C)COCOC3)c2)c(C(C)(C)CC)c1 [Coupler D-13]
16 | 452 |  | 452 | CCC(C)(C)c1ccc(OCCCC(=O)Nc2ccc(Cl)c(NC(=O)CC(=O)C3(C)COCOC3)c2)c(C(C)(C)CC)c1 [Coupler D-5]
